Reference: US5456247A, “Method for delivering drugs soluble in a vaporization vehicle” (priority 1993, dated 1995)
Like-named read-outs stand apart in the source and are kept apart here.

Legend:
[1] = Volatilization of drugs with a vaporization vehicle; assay type: physicochemical; details: menthol as vaporization vehicle
Text: The amount of vaporization vehicle depends on which drug is delivered. […] Other potential vaporization vehicles include carvone, menthone and camphor.

bordetella avium = details: turkeys; route not stated; cited from earlier work
in vivo [2] = details: rat, inhaled or intranasal
Method: Tests were conducted to study the entry of sulfa drugs into the blood and lungs of test subjects. […] Rats were placed in the treatment chamber 9. […] An air pump was used to circulate air through the volatile chamber 10 to the treatment chamber. The rats' condition, temperature of the flask and vapor flow into the treatment chamber 9 were monitored. After three minutes of inhalation therapy the air flow was shut off and the rats were removed from treatment chamber 9. Blood and lung tissue were removed for testing.

[3] = rat, in vivo, inhaled or intranasal, 0.05 h
Method: Tests were conducted to study the entry of sulfa drugs into the blood and lungs of test subjects. […] Samples of sulfamethazine and menthol (0.285 grams equal portions of each) were weighed and heated at 180° C. in a distillation flask in the volatile chamber. Rats were placed in the treatment chamber 9. […] An air pump was used to circulate air through the volatile chamber 10 to the treatment chamber. The rats' condition, temperature of the flask and vapor flow into the treatment chamber 9 were monitored. After three minutes of inhalation therapy the air flow was shut off and the rats were removed from treatment chamber 9. Blood and lung tissue were removed for testing.

[4] = in vivo
Method: (§1) The levels that were taken orally were administered for a period of time on the order of days, while inhalation treatments were for a period of time on the order of minutes in length (five minutes).

in vivo [5] = details: inhaled or intranasal
Method: as §1

Molecule	need for menthol for volatilization [1]	success at treating bordetella avium disease (bordetella avium)	Lungs: sulfamethazine level (in vivo [2]; 0.05 h)	concentration at 0.05 h (in vivo [2]; Lungs: sulfamethazine level) [ng/g]	Lungs: sulfamethazine level [3] [ppb]	sulfamethazine level in lung tissue, inhalation, immediate ([4]; 0 min) [ppm]	sulfamethazine level in lung tissue, oral ([4]; po) [ppm]	concentration at 25 min (in vivo [5]) [ng/g]
gentamicin	can be volatilized with little or no menthol	successful at treating the disease	–	–	–	–	–	–
Cc1cc(C)nc(NS(=O)(=O)c2ccc(N)cc2)n1 [sulfamethazine]	–	–	~ 0.1 ppm	~100	50	0.2	0.1	100
Cc1cc(NS(=O)(=O)c2ccc(N)cc2)no1 [sulfamethoxazole]	–	successful at treating the disease	–	–	–	–	–	–
